Earlier results in US12128086B2, “Formulations and methods of use for alpha connexin c-terminal (ACT) peptides” (XEQUEL BIO, INC., priority 2012, dated 2024).
Where two headings read alike, the source gives them in different places.

What was measured:
[1] = tested on: full thickness excisional wounds; conditions: pigs; 100 μM of ACT1 peptide; 5 mm full thickness excisional wounds
[2] = tested on: full thickness excisional wounds; conditions: adult mice; 100 μM of ACT1 peptide; 5 mm full thickness excisional wounds

For “Biotin-Ahx-Arg-Gln-Pro-Lys-lle-Trp-Phe-Pro-Asn-Arg-Arg-Lys-Pro-Trp-Lys-Lys-Arg-Pro-Arg-Pro-Asp-Asp-Leu-Glu-lle-OH [Peptide 328967]”, the “Wound healing versus vehicle control (in words)” value [1] is given as “closed faster, appeared less swollen and inflamed, and healed with a smoother and less discolored appearance” and the “Wound healing versus vehicle control (in words)” value [2] is given as “closed faster, appeared less swollen and inflamed, and healed with a smoother and less discolored appearance”.
